Source: US20020177554A1, “Novel peptides for use in treatment of T-cell mediated cartilage destruction in autoimmune diseases” (Akzo Nobel N.V., priority 1995, published 2002)
Ends that are not written are not given here.

How the values were obtained:
PBMC from RA patients = experiment: Proliferative responses of PBMC from RA patients ([3H]thymidine incorporation); type: cell-based, human; details: peptide 50 μg/ml, mean of three or four measurements
[1] = target: T1, HLA-DR4 (DRB1*0401) molecules, affinity purified (human); experiment: semi-quantitative competition with biotinylated IHA(307-319)F for purified HLA-DR; relative IC50 grade read by eye from ECL blot
T1 construct: mature; Used at 0.05-5 uM in the assay

[2] = target: T1, HLA-DR4 (DRB1*0401) molecules, affinity …; experiment: semi-quantitative competition with biotinylated IHA(307-319)F for purified HLA-DR; range taken from the table legend for grade +
[3] = target: T1, HLA-DR4 (DRB1*0401) molecules, affinity …; experiment: semi-quantitative competition with biotinylated IHA(307-319)F for purified HLA-DR; range taken from the table legend for grade ++

AGWLADGSLRYPI [HAG3]
Proliferative response of PBMC, [3H]TdR incorporation (PBMC from RA patients; donor 191 (RA), background 320): 233 count per 5 min
Proliferative response of PBMC, [3H]TdR incorporation (PBMC from RA patients; donor 209 (RA), background 405): 1094 count per 5 min

AGWLADRSVRYPI [HAG2]
Proliferative response of PBMC, [3H]TdR incorporation (PBMC from RA patients; donor 191 (RA), background 320): 1061 count per 5 min
Proliferative response of PBMC, [3H]TdR incorporation (PBMC from RA patients; donor 209 (RA), background 405): 1115 count per 5 min

AGWLSDGSVQYPI [HCLP1]
Proliferative response of PBMC, [3H]TdR incorporation (PBMC from RA patients; donor 209 (RA), background 405): 1503 count per 5 min
Proliferative response of PBMC, [3H]TdR incorporation (PBMC from RA patients; donor 227 (RA), background 833): 1964 count per 5 min

B1: HCLP1 (peptide)
peptide: AGWLSDGSVQYPI
notes: also called HCIP1
relative binding affinity IC50 (eIC50) [1]: 10 to 100 µM
IC50 [2]: 10 to 100 µM

B2: HAG2 (peptide)
peptide: H-AGWLADRSVRYPI-OH
notes: Synthetic peptide with free amino and carboxy termini; The residue range on HAG is not tied to this label
relative binding affinity IC50 (eIC50) [1]: 1 to 10 µM
IC50 [3]: 1 to 10 µM

B3: HAG3 (peptide)
peptide: H-AGWLADGSLRYPI-OH
notes: as for B2
relative binding affinity IC50 (eIC50) [1]: 1 to 10 µM
IC50 [3]: 1 to 10 µM
